# In patent publication US12358886B2, “Heterocyclic compounds for use in the treatment of cancer” (Artios Pharma Limited, priority 2019, dated 2025):
# Biological target: Polθ protein (amino acids 2-2590) (Homo sapiens, UniProt O75417)
# Experiment: Polθ full length enzyme potency assay (PicoGreen)
# Conditions: Polθ IC50 (nM), full length N-His, C-term FLAG tagged Polθ, PicoGreen fluorescence, 12 point concentration response
# Method: Polθ Full Length Enzyme Potency Assay
# PicoGreen assay was used to measure the ability of compounds to inhibit the activity of Polθ in vitro. […] DMSO concentration was maintained at 1% by back filling with DMSO solution. […] This was dispensed into each well of the compound plate using a VIAFLO 16 channel manual pipette (Integra) and pre-incubated at rt for 30 min. 3 μL of 2× working solution of dNTPs (40 μM) (dATP, dCTP, dGTP, dTTP; Sigma D6500, D4635, D4010, T0251) diluted in assay buffer was then added and the reaction incubated for 60 min at rt. The reaction was stopped by addition of 10 mM EDTA, 25 mM Tris pH 7.5 and 1:200 dilution of PicoGreen dye (Invitrogen P7581).
# Chain of Polθ protein (amino acids 2-2590) (O75417 2-2590): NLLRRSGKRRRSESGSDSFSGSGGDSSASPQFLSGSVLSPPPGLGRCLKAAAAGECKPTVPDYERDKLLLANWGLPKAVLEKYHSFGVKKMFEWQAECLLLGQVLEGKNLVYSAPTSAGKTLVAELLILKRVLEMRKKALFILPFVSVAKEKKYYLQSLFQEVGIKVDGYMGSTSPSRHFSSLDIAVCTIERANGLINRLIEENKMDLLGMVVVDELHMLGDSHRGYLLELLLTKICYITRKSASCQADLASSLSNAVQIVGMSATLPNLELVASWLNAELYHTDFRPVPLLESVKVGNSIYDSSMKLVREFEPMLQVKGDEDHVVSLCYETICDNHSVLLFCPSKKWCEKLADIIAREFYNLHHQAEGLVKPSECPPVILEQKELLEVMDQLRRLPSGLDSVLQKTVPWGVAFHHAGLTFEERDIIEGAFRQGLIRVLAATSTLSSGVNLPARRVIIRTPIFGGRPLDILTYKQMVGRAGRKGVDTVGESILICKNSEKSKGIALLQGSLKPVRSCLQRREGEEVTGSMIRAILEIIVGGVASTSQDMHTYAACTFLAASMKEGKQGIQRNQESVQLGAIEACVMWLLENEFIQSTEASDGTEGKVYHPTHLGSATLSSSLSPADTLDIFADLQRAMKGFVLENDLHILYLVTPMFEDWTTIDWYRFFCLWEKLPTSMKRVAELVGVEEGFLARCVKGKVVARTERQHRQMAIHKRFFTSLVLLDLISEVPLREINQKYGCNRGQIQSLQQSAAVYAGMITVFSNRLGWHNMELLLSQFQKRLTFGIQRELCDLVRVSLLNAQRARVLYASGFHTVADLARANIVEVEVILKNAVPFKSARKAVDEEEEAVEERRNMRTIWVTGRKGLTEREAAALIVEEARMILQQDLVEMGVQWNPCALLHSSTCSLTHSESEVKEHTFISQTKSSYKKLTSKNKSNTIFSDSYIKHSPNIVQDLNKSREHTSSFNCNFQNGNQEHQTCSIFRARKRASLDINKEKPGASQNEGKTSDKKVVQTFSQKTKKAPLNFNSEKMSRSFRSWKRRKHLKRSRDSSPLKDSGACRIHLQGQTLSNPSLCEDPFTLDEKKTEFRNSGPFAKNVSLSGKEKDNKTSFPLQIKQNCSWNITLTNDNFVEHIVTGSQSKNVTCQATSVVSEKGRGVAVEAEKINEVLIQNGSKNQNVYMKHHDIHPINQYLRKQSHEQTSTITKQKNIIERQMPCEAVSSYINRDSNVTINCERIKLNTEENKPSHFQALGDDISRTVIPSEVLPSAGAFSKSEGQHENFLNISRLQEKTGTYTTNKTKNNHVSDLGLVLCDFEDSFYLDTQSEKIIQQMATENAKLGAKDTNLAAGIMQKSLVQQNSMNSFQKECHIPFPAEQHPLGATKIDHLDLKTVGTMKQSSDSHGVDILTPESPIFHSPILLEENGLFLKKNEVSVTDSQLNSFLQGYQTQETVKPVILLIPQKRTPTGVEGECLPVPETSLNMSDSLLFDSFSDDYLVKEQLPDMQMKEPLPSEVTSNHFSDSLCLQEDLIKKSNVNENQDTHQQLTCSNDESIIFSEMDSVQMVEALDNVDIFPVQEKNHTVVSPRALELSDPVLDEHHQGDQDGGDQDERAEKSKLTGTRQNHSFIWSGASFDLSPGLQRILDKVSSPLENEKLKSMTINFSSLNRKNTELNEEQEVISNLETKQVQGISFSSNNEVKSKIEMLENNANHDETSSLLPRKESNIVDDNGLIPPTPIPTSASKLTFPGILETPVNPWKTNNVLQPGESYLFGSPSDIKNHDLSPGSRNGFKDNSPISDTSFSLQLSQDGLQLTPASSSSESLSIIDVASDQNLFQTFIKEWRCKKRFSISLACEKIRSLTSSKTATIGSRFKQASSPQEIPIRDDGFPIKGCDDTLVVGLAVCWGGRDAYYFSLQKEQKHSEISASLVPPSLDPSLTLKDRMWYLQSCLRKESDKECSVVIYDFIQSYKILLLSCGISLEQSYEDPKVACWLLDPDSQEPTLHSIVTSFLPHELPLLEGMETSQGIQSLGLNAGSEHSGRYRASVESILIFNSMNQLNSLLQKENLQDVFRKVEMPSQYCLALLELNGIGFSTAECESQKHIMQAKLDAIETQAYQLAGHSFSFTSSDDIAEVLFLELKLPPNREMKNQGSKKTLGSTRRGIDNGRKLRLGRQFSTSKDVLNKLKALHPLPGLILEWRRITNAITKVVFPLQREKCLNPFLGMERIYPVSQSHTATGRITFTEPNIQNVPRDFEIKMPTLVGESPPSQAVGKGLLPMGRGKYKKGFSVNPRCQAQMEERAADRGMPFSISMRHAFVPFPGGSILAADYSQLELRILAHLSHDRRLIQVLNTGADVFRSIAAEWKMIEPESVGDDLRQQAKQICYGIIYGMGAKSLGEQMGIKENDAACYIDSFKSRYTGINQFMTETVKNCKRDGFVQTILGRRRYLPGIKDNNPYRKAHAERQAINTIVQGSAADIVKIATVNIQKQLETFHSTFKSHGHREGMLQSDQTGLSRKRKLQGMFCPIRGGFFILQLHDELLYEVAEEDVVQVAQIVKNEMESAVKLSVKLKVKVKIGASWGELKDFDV
row,IC50 [nM],Compound
1,94,"CNc1cccc(N(C)C(=O)[C@@H]2COC(=O)N2c2cc(C(F)(F)F)cc(C)n2)n1 [Example 176, (S)—N-Methyl-3-(6-methyl-4-(trifluoromethyl)pyridin-2-yl)-N-(6-(methylamino)pyridin-2-yl)-2-oxooxazolidine-4-carboxamide]"
2,109,"Cc1cc(C(F)(F)F)cc(N2C(=O)OC[C@H]2C(=O)N(C)c2cccc(N(C)C)n2)n1 [Example 177, (S)—N-(6-(Dimethylamino)pyridin-2-yl)-N-methyl-3-(6-methyl-4-(trifluoromethyl)pyridin-2-yl)-2-oxooxazolidine-4-carboxamide]"
3,833,"Cc1cc(C(F)(F)F)cc(N2C(=O)OC[C@H]2C(=O)N(C)c2ccc3cccnc3c2)n1 [Example 178, (S)—N-Methyl-3-(6-methyl-4-(trifluoromethyl)pyridin-2-yl)-2-oxo-N-(quinolin-7-yl)oxazolidine-4-carboxamide]"
4,9,"Cc1cc(C(F)(F)F)cc(N2C(=O)N(CCS(C)(=O)=O)C[C@H]2C(=O)N(C)c2ccc(F)c(Cl)c2)n1 [Example 180, (S)—N-(3-Chloro-4-fluorophenyl)-N-methyl-3-(6-methyl-4-(trifluoromethyl)pyridin-2-yl)-1-(2-(methylsulfonyl)ethyl)-2-oxoimidazolidine-4-carboxamide]"
5,45,"Cc1cc(C(F)(F)F)cc(N2C(=O)N(CCS(=O)(=O)N(C)C)C[C@H]2C(=O)N(C)c2ccc(F)c(Cl)c2)n1 [Example 181, (S)—N-(3-Chloro-4-fluorophenyl)-1-(2-(N,N-dimethylsulfamoyl)ethyl)-N-methyl-3-(6-methyl-4-(trifluoromethyl)pyridin-2-yl)-2-oxoimidazolidine-4-carboxamide]"
6,24,"Cc1cc(C(F)(F)F)cc(N2C(=O)N(CCCN(C)C)C[C@H]2C(=O)N(C)c2ccc(F)c(Cl)c2)n1 [Example 183, (S)-N-(3-Chloro-4-fluorophenyl)-1-(3-(dimethylamino)propyl)-N-methyl-3-(6-methyl-4-(trifluoromethyl)pyridin-2-yl)-2-oxoimidazolidine-4-carboxamide]"
7,13,"Cc1cc(C(F)(F)F)cc(N2C(=O)N(CC(N)=O)C[C@H]2C(=O)N(C)c2ccc(F)c(Cl)c2)n1 [Example 184, (S)-1-(2-Amino-2-oxoethyl)-N-(3-chloro-4-fluorophenyl)-N-methyl-3-(6-methyl-4-(trifluoromethyl)-pyridin-2-yl)-2-oxoimidazolidine-4-carboxamide]"
8,9,"Cc1cc(C(F)(F)F)cc(N2C(=O)N(CC3(CO)COC3)C[C@H]2C(=O)N(C)c2ccc(F)c(Cl)c2F)n1 [Example 186, (S)-N-(3-Chloro-2,4-difluoro-phenyl)-1-((3-(hydroxymethyl)-oxetan-3-yl)methyl)-N-methyl-3-(6-methyl-4-(trifluoromethyl)-pyridin-2-yl)-2-oxoimidazolidine-4-carboxamide]"
9,22,"Cc1cc(C(F)(F)F)cc(N2C(=O)N(CCNS(C)(=O)=O)C[C@H]2C(=O)N(C)c2ccc(F)c(Cl)c2)n1 [Example 187, (S)—N-(3-Chloro-4-fluorophenyl)-N-methyl-3-(6-methyl-4-(trifluoromethyl)pyridin-2-yl)-1-(2-(methylsulfonamido)ethyl)-2-oxoimidazolidine-4-carboxamide]"
10,6,"Cc1cc(C(F)(F)F)cc(N2C(=O)N(CCO)C[C@H]2C(=O)N(C)c2ccc(F)c(Cl)c2)n1 [Example 193, (S)—N-(3-Chloro-4-fluorophenyl)-1-(2-hydroxyethyl)-N-methyl-3-(6-methyl-4-(trifluoromethyl)pyridin-2-yl)-2-oxoimidazolidine-4-carboxamide]"
11,7,"Cc1cc(C(F)(F)F)cc(N2C(=O)N(CCN3CCOCC3)C[C@H]2C(=O)N(C)c2ccc(F)c(Cl)c2)n1 [Example 194, (S)-N-(3-Chloro-4-fluorophenyl)-N-methyl-3-(6-methyl-4-(trifluoromethyl)pyridin-2-yl)-1-(2-morpholinoethyl)-2-oxoimidazolidine-4-carboxamide]"
12,4,"Cc1cc(C(F)(F)F)cc(N2C(=O)N(CCN3CCOCC3)C[C@H]2C(=O)N(C)c2ccc(F)c(Cl)c2F)n1 [Example 195, (S)-N-(3-Chloro-2,4difluorophenyl)-N-methyl-3-(6-methyl-4-(trifluoromethyl)pyridin-2-yl)-1-(2-morpholinoethyl)-2-oxoimidazolidine-4-carboxamide]"

# The remaining lines, values behind:
row,Compound,IC50 [nM]
1,"Cc1cc(C(F)(F)F)cc(N2C(=O)NC[C@H]2C(=O)N(c2ccc(F)c(Cl)c2)C(C)C)n1 [Example 179, (S)—N-(3-Chloro-4-fluorophenyl)-N-isopropyl-3-(6-methyl-4-(trifluoromethyl)pyridin-2-yl)-2-oxoimidazolidine-4-carboxamide]",15
2,"Cc1cc(C(F)(F)F)cc(N2C(=O)N(CCN(C)C)C[C@H]2C(=O)N(C)c2ccc(F)c(Cl)c2)n1 [Example 182, (S)-N-(3-Chloro-4-fluorophenyl)-1-(2-(dimethylamino)ethyl)-N-methyl-3-(6-methyl-4-(trifluoromethyl)pyridin-2-yl)-2-oxoimidazolidine-4-carboxamide]",61
3,"Cc1cc(C(F)(F)F)cc(N2C(=O)N(CC(=O)N(C)C)C[C@H]2C(=O)N(C)c2ccc(F)c(Cl)c2)n1 [Example 185, (S)-N-(3-Chloro-4-fluorophenyl)-1-(2-(dimethylamino)-2-oxoethyl)-N-methyl-3-(6-methyl-4-(trifluoromethyl)pyridin-2-yl)-2-oxoimidazolidine-4-carboxamide]",10
4,"Cc1cc(C(F)(F)F)cc(N2C(=O)N(CC3CNC3)C[C@H]2C(=O)N(C)c2ccc(F)c(Cl)c2F)n1 [Example 188, (S)-1-(Azetidin-3-ylmethyl)-N-(3-chloro-2,4-difluorophenyl)-N-methyl-3-(6-methyl-4-(trifluoromethyl)pyridin-2-yl)-2-oxoimidazolidine-4-carboxamide]",18
5,"Cc1cc(C(F)(F)F)cc(N2C(=O)N(CC3CN(C)C3)C[C@H]2C(=O)N(C)c2ccc(F)c(Cl)c2F)n1 [Example 189, (S)—N-(3-Chloro-2,4-difluorophenyl)-N-methyl-3-(6-methyl-4-(trifluoromethyl)pyridin-2-yl)-1-((1-methylazetidin-3-yl)methyl)-2-oxoimidazolidine-4-carboxamide]",32
6,"Cc1cc(C(F)(F)F)cc(N2C(=O)N(CCC(=O)N(C)C)C[C@H]2C(=O)N(C)c2ccc(F)c(Cl)c2)n1 [Example 190, (S)—N-(3-Chloro-4-fluorophenyl)-1-(3-(dimethylamino)-3-oxopropyl)-N-methyl-3-(6-methyl-4-(trifluoromethyl)pyridin-2-yl)-2-oxoimidazolidine-4-carboxamide]",13
7,"CNC(=O)CCN1C[C@@H](C(=O)N(C)c2ccc(F)c(Cl)c2)N(c2cc(C(F)(F)F)cc(C)n2)C1=O [Example 191, (S)—N-(3-Chloro-4-fluorophenyl)-N-methyl-3-(6-methyl-4-(trifluoromethyl)pyridin-2-yl)-1-(3-(methylamino)-3-oxopropyl)-2-oxoimidazolidine-4-carboxamide]",12
8,"Cc1cc(C(F)(F)F)cc(N2C(=O)N(CCN3CCNCC3)C[C@H]2C(=O)N(C)c2ccc(F)c(Cl)c2F)n1 [Example 192, (S)—N-(3-Chloro-2,4-difluorophenyl)-N-methyl-3-(6-methyl-4-(trifluoromethyl)pyridin-2-yl)-2-oxo-1-(2-(piperazin-1-yl)ethyl)imidazolidine-4-carboxamide]",9
